The experiment relates to Hs578T complex spheroid growth, percent test/control. Nature of the experiment: Anticancer human tumor Hs578T cell line growth inhibition [AhR].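 For all read-outs here: luminescent viability signal as a proxy for spheroid growth; spheroids exposed to agents for one week after three days of growth.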 The settings on record: for viability, T/C: stronger effect = lower value; for IC50: curve of compound. From the text: Multicellular complex tumor spheroid response to aryl hydrocarbon receptor antagonists in combination with a variety of drugs and investigational agents in selected tumor cell lines
The current study was undertaken to assess response to aryl hydrocarbon receptor antagonists in combination with standard-of-care drugs and investigational agents in solid tumor complex spheroid models. Complex spheroids include a stromal component modeled by human endothelial cells (HUVEC) and fibroblasts modeled by human mesenchymal stem cells (MSCs). The concentration ranges selected for each drug and investigational agent were based upon clinically achievable concentrations if the clinical Cmax of the agent was known.
Compounds. The drugs and investigational agents: BAY 2416964 (NSC825713), GNF351 (NSC835774), CH-223191 (NSC835775), CPI-455 (NSC825282), aza-TdCyd (NSC777586), decitabine (NSC127716), belinostat (NSC758774), entinostat (NSC756642), pevonedistat (NSC761192), tazemetostat (NSC777109), talazoparib (NSC765396), olaparib (NSC753686), selinexor (NSC780203), nedisertib (M3814, NSC802822), bortezomib (NSC756655), venetoclax (NSC766270), doxorubicin (NSC123127), elimusertib (BAY189344, NSC800525), ceralasertib (AZD6738, NSC777638), TAK-243 (NSC785004), alisertib (NSC759677), etoposide (NSC141540), topotecan (NSC609699), eribulin (NSC707389), gemcitabine (NSC613327), carboplatin (NSC241240), cisplatin (NSC119875), and SN-38 (NSC673596) were obtained from the National Cancer Institute (NCI) Developmental Therapeutics Program Chemical Repository (32). The FDA-approved anticancer drug set is available from the Developmental Therapeutics Program at https://dtp.cancer.gov/organization/dscb/obtaining/available plates.htm. […] The stock solutions were prepared in dimethyl sulfoxide (DMSO, Sigma-Aldrich, St. Louis, MO, cat. D2650), except for the platinum compounds which were prepared in saline (Quality Biological, Gaithersburg, MD, cat. 114-055-101), at 800-fold the tested concentration and stored at -70 degrees C prior to their use. All drugs and investigational agents were tested over a range starting from a high concentration at or near the clinical Cmax and decreasing in half-log increments. If the clinical Cmax for an agent had not been determined, the highest concentration tested was 10 microM (Table 1).
Cell Culture. All cells were maintained in an incubator at 37 degrees C and 5% CO2 with 95% humidity. The PDC lines were cultured according to standard operating procedures established by the NCI PDMR (https://pdmr.cancer.gov). Briefly, all PDCs were thawed and cultured in Matrigel-coated flasks prepared with a working solution of 1X Ham's F-12 nutrient mix, without supplementation (Invitrogen, Waltham, MA, cat. 11765054), 100 U/mL penicillin-streptomycin (Invitrogen, cat. 15140122), and 2.5% Matrigel (Corning Inc., Corning, NY, cat. 354248) for the first three passages. All PDCs were cultured in complete DMEM/F-12 media containing advanced DMEM/F-12 (Invitrogen, cat. 12634028), 4.9% defined fetal bovine serum, heat inactivated (HyClone Laboratories Inc., Logan, UT, cat. SH30070.03HI), 389 ng/mL hydrocortisone (Sigma-Aldrich, cat. H4001), 9.7 ng/mL human EGF recombinant protein (Invitrogen, cat. PHG0313), 23.4 microg/mL adenine (Sigma-Aldrich, cat. A2786), 97.3 U/mL penicillin-streptomycin (Invitrogen, cat. 15140122), 1.9 mM L-glutamine (Invitrogen, cat. 25030081), and 9.7 microM Y-27632 dihydrochloride (Tocris Bioscience, Bristol, United Kingdom, cat. 1254). The PDCs were cultured in complete DMEM/F12 media without 10 microM Y-27632 dihydrochloride for at least two passages prior to the screen. The established cell lines NCI-H1341 and […] were cultured in DMEM/F-12, HEPES (Invitrogen, cat. 11330032), 5% defined fetal bovine serum (HyClone Laboratories Inc., cat. SH30070.03), ITS premix universal culture supplement [insulin (5 microg/mL), transferrin (5 microg/mL), and selenious acid (5 ng/mL)] […]

The structures appear in SMILES notation. Values joined by “and” are separate entries in the source; they are usually repeats but may differ in a detail not shown here. Equal entries are not always repeated.

In PubChem BioAssay AID1919010 (Molecular Pharmacology Branch, DTP, NCI, 2023) one finds viability, T/C and IC50 data, which are given here for nine compounds.

Consider `CC(C)CC(NC(=O)C(Cc1ccccc1)NC(=O)c1cnccn1)B(O)O` (stereo not drawn), for which the IC50 was 6.56 nM and 5.49 nM and 4.5 nM. The viability, T/C (compound 0.000949 µM) was 105% and 102% and 101%. Also, the viability, T/C (compound 0.003 µM) is 94% and 86.9% and 73.4%. Under “compound 0.00949 µM”, the viability, T/C is 29.3% and 16.7% and 7.03%. The viability, T/C (compound 0.03 µM) is 0.41% and 0.42% and 0.68%. Moreover, for the setting “compound 0.0949 µM”, the viability, T/C is 0.27% and 0.44% and 1.61%. Under “compound 0.3 µM”, the viability, T/C is 0.58% and 0.42% and 0.53%.

For `CC1(C)CCC(CN2CCN(c3ccc(C(=O)NS(=O)(=O)c4ccc(NCC5CCOCC5)c([N+](=O)[O-])c4)c(Oc4cnc5[nH]ccc5c4)c3)CC2)=C(c2ccc(Cl)cc2)C1`, the 50% inhibitory concentration (IC50) is > 10000 nM. Where the note is “compound 0.0316 µM”, the viability, T/C is 103% and 111% and 99.9%. Moreover, the viability, T/C (compound 0.1 µM) was 110% and 109% and 97.8%. Also, the viability, T/C (compound 0.316 µM) is 112% and 104% and 99.2%. Besides, the viability, T/C (compound 1 µM) was 91% and 103% and 92.9%. Moreover, where the note is “compound 3.16 µM”, the viability, T/C is 101% and 97.7% and 82.6%. For the same compound, the viability, T/C (compound 10 µM) was 84% and 62.3% and 78.2%.

As to `CC1COCCN1c1cc(-c2ccnn2C)c2ccnc(-c3ccn[nH]3)c2n1` (stereo not drawn), the IC50 is 658 nM and 326 nM and 298 nM. In addition, the viability, T/C (compound 0.00316 µM) was 109% and 104% and 102%. Besides, the viability, T/C (compound 0.01 µM) was 105% and 104% and 114%. Further, the viability, T/C (compound 0.0316 µM) was 97.8% and 102% and 95.5%. The viability, T/C (compound 0.1 µM) is 78.7% and 81.3% and 77.2%. The viability, T/C (compound 0.316 µM) is 60.4% and 51% and 48.1%. The viability, T/C (compound 1 µM) was 44.3% and 36.2% and 37.9%.

As for `CCN(c1cc(-c2ccc(CN3CCOCC3)cc2)cc(C(=O)NCc2c(C)cc(C)[nH]c2=O)c1C)C1CCOCC1`, the IC50 is > 3000 nM. The viability, T/C (compound 0.00949 µM) was 103% and 101% and 104%. Besides, the viability, T/C (compound 0.03 µM) is 105% and 99% and 108%. Further, under “compound 0.0949 µM”, the viability, T/C is 109% and 101% and 95.7%. Where the note is “compound 0.3 µM”, the viability, T/C is 91.3% and 103% and 98.4%. For the same compound, the viability, T/C (compound 0.949 µM) was 100% and 97.4% and 94.9%. Also, the viability, T/C (compound 3 µM) was 95.2% and 97.7% and 99.6%.

In the case of `CC[C@@]1(O)C(=O)OCc2c1cc1n(c2=O)Cc2cc3c(CN(C)C)c(O)ccc3nc2-1`, the IC50 was > 100 nM. Moreover, the viability, T/C (compound 0.000316 µM) was 94.7% and 97.6% and 107%. For the same compound, for the setting “compound 0.001 µM”, the viability, T/C was 106% and 98.2% and 103%. For the same compound, under “compound 0.00316 µM”, the viability, T/C is 105% and 90.3% and 95.3%. In addition, the viability, T/C (compound 0.01 µM) is 96.5% and 72.5% and 96.3%. The viability, T/C (compound 0.0316 µM) was 76.8% and 64.2% and 77.9%. In addition, the viability, T/C (compound 0.1 µM) was 69.3% and 71.8% and 68.2%.

On to `CCc1c2c(nc3ccc(O)cc13)-c1cc3c(c(=O)n1C2)COC(=O)[C@]3(O)CC`, for which the IC50 is 253 nM and 124 nM and 206 nM. Moreover, the viability, T/C (compound 0.000949 µM) was 83.3% and 77.6% and 78.6%. Moreover, for the setting “compound 0.003 µM”, the viability, T/C is 70.5% and 82.2% and 73.2%. Also, the viability, T/C (compound 0.00949 µM) was 74% and 64.3% and 76.1%. Besides, the viability, T/C (compound 0.03 µM) is 64.6% and 63.2% and 75%. The viability, T/C (compound 0.0949 µM) is 62.3% and 56.5% and 61.9%. Where the note is “compound 0.3 µM”, the viability, T/C is 47.1% and 38.3% and 43.4%.

In the case of `COc1cc(C2c3cc4c(cc3C(OC3OC5COC(C)OC5C(O)C3O)C3COC(=O)C23)OCO4)cc(OC)c1O` (stereo not drawn), the half-maximal inhibitory concentration (IC50) was > 10000 nM. Where the note is “compound 0.0316 µM”, the viability, T/C was 85.4% and 94.6% and 92.8%. The viability, T/C (compound 0.1 µM) was 99.7% and 91.7% and 91.5%. The viability, T/C (compound 0.316 µM) is 84.1% and 88.8% and 79.9%. Also, for the setting “compound 1 µM”, the viability, T/C was 66.8% and 82.6% and 69.9%. Moreover, the viability, T/C (compound 3.16 µM) was 69.5% and 79.7% and 71.9%. Also, for the setting “compound 10 µM”, the viability, T/C was 58.1% and 56.4% and 57.1%.

On to `COc1cc(Nc2ncc3c(n2)-c2ccc(Cl)cc2C(c2c(F)cccc2OC)=NC3)ccc1C(=O)O`, for which the IC50 is 9280 nM and 6150 nM and 8470 nM. In addition, for the setting “compound 0.0316 µM”, the viability, T/C was 78.2% and 84.4% and 89.2%. In addition, the viability, T/C (compound 0.1 µM) is 92.6% and 82.2% and 94%. Moreover, the viability, T/C (compound 0.316 µM) was 97% and 80.2% and 85.2%. The viability, T/C (compound 1 µM) is 96.8% and 87% and 87.8%. The viability, T/C (compound 3.16 µM) was 89.2% and 70.9% and 81%. In addition, the viability, T/C (compound 10 µM) is 47.3% and 34.7% and 44.9%.

For the compound `COc1cccc2c1C(=O)c1c(O)c3c(c(O)c1C2=O)CC(O)(C(=O)CO)CC3OC1CC(N)C(O)C(C)O1` (stereo not drawn), the IC50 is 448 nM and 364 nM and 406 nM. In addition, the viability, T/C (compound 0.0316 µM) is 94.7% and 85.6% and 84.9%. Besides, the viability, T/C (compound 0.1 µM) is 76.8% and 79.4% and 75.8%. The viability, T/C (compound 0.316 µM) is 64.8% and 54.3% and 58.2%. The viability, T/C (compound 1 µM) was 22.9% and 18.6% and 23.3%. The viability, T/C (compound 3.16 µM) was 3.73% and 2.18% and 2.52%. Also, the viability, T/C (compound 10 µM) is 3.36% and 2.24% and 3.77%.

The term viability, T/C denotes the result in the treated group divided by that in the control group, in per cent. As a reminder, the IC50 is the midpoint of a concentration-inhibition curve.
